Where two headings read alike, the source gives them in different places.
Assays:
[1] = Measurement of thermal stability (TG/DTA weight reduction temperature); assay type: physicochemical; conditions: for Weight reduction temperature 5% / Weight reduction temperature 10% / Weight reduction temperature 20%: TG/DTA, 30° C. to 600° C., 10° C./min, air 200 mL/min; for Weight reduction temperatures higher than those of Z-TETRAOL by: compared with Z-TETRAOL (Comparative Example 7C); for Weight reduction temperatures higher than those of Z-DOL by: compared with perfluoropolyether Z-DOL (Comparative Example 6C)
[2] = in acetonitrile; cited from earlier work
[3] = Solubility test of ionic liquids in Vertrel XF and n-hexane (visual observation)
Procedure: To a predetermined amount of Vertrel XF or n-hexane, the ionic liquid was added. Ultrasonic waves were applied to the resultant mixture for 5 minutes, followed by leaving the mixture to stand for 1 day. The solubility was visually observed.
After applying ultrasonic waves to the resultant for 5 minutes, the resultant was left to stand for 1 day. Thereafter, the solubility was visually observed and evaluated based on the following evaluation criteria. […] Similarly, after applying ultrasonic waves to the resultant for 5 minutes, the resultant was left to stand for 1 day. Thereafter, the solubility was visually observed and evaluated based on the following evaluation criteria.
Note that, the solubility was visually observed, and it was judged as soluble when it was transparent. Moreover, it was judged as not soluble (insoluble) when it was opaque or insoluble components were observed.
The results are presented in Table 2. • [Evaluation Criteria]
• 0.2% by mass or greater:
Soluble with addition of 0.2 parts by mass • Less than 0.2% by mass:
Insoluble with addition of 0.2 parts by mass
<<n-Hexane>> • 0.5% by mass or greater:
Soluble with addition of 0.5 parts by mass • Less than 0.5% by mass:
Insoluble with addition of 0.5 parts by mass

[4] = Vertrel XF [CF3(CHF)2CF2CF3], 25° C., 0.2 parts by mass added to 100 parts by mass, ultrasonic 5 minutes, left 1 day, visual
[5] = n-hexane, 25° C., 0.5 parts by mass added to 100 parts by mass, ultrasonic 5 minutes, left 1 day, visual

Row | Molecule | Weight reduction temperature 5% [1] [°C] | Weight reduction temperature 10% [1] [°C] | Weight reduction temperature 20% [1] [°C] | Weight reduction temperatures higher than those of Z-TETRAOL by [1] [°C] | Weight reduction temperatures higher than those of Z-DOL by [1] [°C] | pKa [2] | also measured
1 | nonafluorobutanesulfonic acid-1-dodecyl-2-undecylimidazolium [Ex. 1A] | 349.4 | 374.1 | 398.9 | ≥ 100 | ≥ 170 |  | 
2 | pentadecafluorooctanoic acid octadecyl ammonium [5A, reference compound] | 206.9 | 215.8 | 223.4 |  |  |  | Thermal stability (in words) ([1]; summary of Table 3): lacking in thermal stability
3 | O=S(=O)(NS(=O)(=O)C(F)(F)C(F)(F)C(F)(F)C(F)(F)F)C(F)(F)C(F)(F)C(F)(F)C(F)(F)F [bis(nonafluorobutanesulfonyl)imide] |  |  |  |  |  | 0.0 | 
4 | CCCCCCCCCCCCCCCCCCn1ccnc1CCCCCCCCCCC.O=S(=O)(NS(=O)(=O)C(F)(F)C(F)(F)C(F)(F)C(F)(F)F)C(F)(F)C(F)(F)C(F)(F)C(F)(F)F [Ex. 4A, bis(nonafluorobutanesulfonyl)imide-1-octadecyl-2-undecylimidazolium] | 329.1 | 362.4 | 388.4 | ≥ 90 | ≥ 160 |  | 
5 | O=S1(=O)NS(=O)(=O)C(F)(F)C(F)(F)C1(F)F [hexafluorocyclopropane-1,3-bis(sulfonyl)imide] |  |  |  |  |  | −0.8 | 
6 | perfluorocyclopropane sulfoimide |  |  |  |  |  | −0.8 | 
7 | CCCCCCCCCCCCCCCCCCn1ccnc1CCCCCCCCCCCCCCCCC.O=S(=O)(O)C(F)(F)C(F)(F)C(F)(F)C(F)(F)F [4A, nonafluorobutanesulfonic acid-1-octadecyl-2-heptadecyimidazole, reference compound] | 338.2 | 365.9 | 390.1 |  |  |  | Solubility, Fluorine-based solvent [3, 4]: less than 0.2% by mass; Solubility, n-Hexane [3, 5]: less than 0.5% by mass
8 | nonafluorobutanesulfonic acid-1-octadecyl-2-undecylimidazolium [Ex. 3A] | 328.3 | 368.1 | 396.7 | ≥ 80 | ≥ 170 |  | 
9 | CCCCCCCCCCCCCCCCCC[n+]1ccn(CCCC)c1.O=S1(=O)[N-]S(=O)(=O)C(F)(F)C(F)(F)C1(F)F [2A, hexafluorocyclopropane-1,3-bis(sulfonyl)imide-1-butyl-3-n-octadecylimidazolium, reference compound] | 347.2 | 367.0 | 387.8 |  |  |  | Solubility, Fluorine-based solvent [3]: less than 0.2% by mass; Solubility, n-Hexane [3]: less than 0.5% by mass
10 | nonafluorobutanesulfonic acid-1-octadecylimidazolium [1A, reference compound] | 349.3 | 375.0 | 397.5 |  |  |  | 
11 | CCCCCCCCCCCCn1ccnc1CCCCCCCCCCC.O=S(=O)(NS(=O)(=O)C(F)(F)C(F)(F)C(F)(F)C(F)(F)F)C(F)(F)C(F)(F)C(F)(F)C(F)(F)F [Ex. 2A, bis(nonafluorobutanesulfonyl)imide-1-dodecyl-2-undecylimidazolium] | 337.7 | 361.6 | 383.8 | ≥ 100 | ≥ 160 |  | Solubility, Fluorine-based solvent [3, 4]: ≥ 0.2% by mass; Solubility, Fluorine-based solvent ([3]; Vertrel XF [CF3(CHF)2CF2CF3], 25° C., 0.2 parts by mass added to 100 parts by mass, ultrasonic 5 minutes, left 1 day, visual, listed as Example 2A): ≥ 0.2 % by mass; Solubility, n-Hexane [3, 5]: ≥ 0.5% by mass; Solubility, n-Hexane ([3]; n-hexane, 25° C., 0.5 parts by mass added to 100 parts by mass, ultrasonic 5 minutes, left 1 day, visual, listed as Example 2A): ≥ 0.5 % by mass
12 | F[B-](F)(F)F.[H+] [tetrafluoroboric acid] |  |  |  |  |  | 1.8 | 
13 | nonafluorobutanesulfonic acid-2-heptadecylimidazole [3A, reference compound] | 365.4 | 390.5 | 414.3 |  |  |  | 

Reference: patent publication US20180012623A1, “Ionic Liquid, Lubricant, and Magnetic Recording Medium” (Dexerials Corporation, priority 2016, published 2018)
